This test addresses T1, human mAChR M4 (Homo sapiens, UniProt P08173).
T1 construct: expressed in transfected cells
T1 sequence (P08173 1-479): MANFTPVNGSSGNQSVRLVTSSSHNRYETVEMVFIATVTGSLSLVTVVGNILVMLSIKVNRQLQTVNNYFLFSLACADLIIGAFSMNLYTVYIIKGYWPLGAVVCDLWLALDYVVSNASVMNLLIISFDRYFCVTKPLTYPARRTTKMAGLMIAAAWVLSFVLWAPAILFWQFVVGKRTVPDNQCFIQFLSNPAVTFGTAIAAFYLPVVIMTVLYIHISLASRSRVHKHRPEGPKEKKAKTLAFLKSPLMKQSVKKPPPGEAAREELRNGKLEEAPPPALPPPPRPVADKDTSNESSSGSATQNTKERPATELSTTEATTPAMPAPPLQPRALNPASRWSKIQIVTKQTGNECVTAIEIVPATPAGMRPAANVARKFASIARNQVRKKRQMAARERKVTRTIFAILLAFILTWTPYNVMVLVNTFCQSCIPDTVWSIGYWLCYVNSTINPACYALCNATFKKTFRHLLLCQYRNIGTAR
The test can be described thus: mAChR M4 cell-based functional assay (calcium mobilization, CHO-K1 hM4-Gqi5 cells). To be noted: for Emax at 30 µM: CHO-K1, % ACh maximum at 30 μM, human M4; for EC50: positive allosteric modulator activity, increase in the EC20 acetylcholine response, CHO-K1 hM4-Gqi5 cells, read-out: Human M4 EC50. The method, boiled down: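 CHO-K1 cells stably expressing human M4 with chimeric Gqi5, loaded with Fluo-4 AM; compounds given as 11-point 1:3 curves and calcium flux read on FDSS at 1 Hz. Acetylcholine EC20 added at 144 s, EC80 at 230 s; agonist, PAM (EC20 potentiation) and antagonist (EC80 inhibition) EC50/Emax from four-parameter fits.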

For `Cc1c(C#N)nnc(N2CCc3ncc(N4CCO[C@H](c5ccccc5)C4)cc3C2)c1C` [Example 376, (R)-4,5-dimethyl-6-(3-(2-phenylmorpholino)-7,8-dihydro-1,6-naphthyridin-6(5H)-yl)pyridazine-3-carbonitrile], the maximal response (Emax) at 30 µM was found to be 90% and the EC50 was 1380 nM.
On the same counts, the results for `Cc1nc(C(F)(F)F)nc(N2CCc3ncc(N4CCCn5nccc54)cc3C2)c1C` [compound 258, 3-(6,7-dihydropyrazolo[1,5-a]pyrimidin-4(5H)-yl)-6-(5,6-dimethyl-2-(trifluoromethyl)pyrimidin-4-yl)-5,6,7,8-tetrahydro-1,6-naphthyridine] are 79% and 69 nM.
On the same counts, the results for `Cc1cc(C(=O)Nc2ccncc2)cnc1N1CCc2ncc(-c3cn(C)nc3C)cc2C1` [Example 450, 6-(3-(1,3-dimethyl-1H-pyrazol-4-yl)-7,8-dihydro-1,6-naphthyridin-6(5H)-yl)-5-methyl-N-(pyridin-4-yl)nicotinamide] are 71% and 215 nM.
On the same counts, the results for `Cc1cc(C#N)cnc1N1CCc2ncc(Nc3ccccn3)cc2C1` [Example 6] are 77% and 223 nM.
Regarding `Cc1cc(C(=O)N2CC(F)C2)nnc1N1CCc2ncc(N3CCO[C@H](C)C3)cc2C1` [Example 572, (R)-(3-fluoroazetidin-1-yl)(5-methyl-6-(3-(2-methylmorpholino)-7,8-dihydro-1,6-naphthyridin-6(5H)-yl)pyridazin-3-yl)methanone], the Emax at 30 µM turned out to be 87% and the EC50 was 51 nM.
In the case of `Cc1cc(C#N)nnc1N1CCc2ncc(Nc3cccnc3F)cc2C1` [Example 399, 6-(3-((2-fluoropyridin-3-yl)amino)-7,8-dihydro-1,6-naphthyridin-6(5H)-yl)-5-methylpyridazine-3-carbonitrile], the Emax at 30 µM worked out at 73% and the EC50 came to 219 nM.
On the same counts, the results for `Cc1cnc2c(c1)CN(c1nnc(C(=O)NCc3cncs3)c(C)c1C)CC2` [Example 468, 4,5-dimethyl-6-(3-methyl-7,8-dihydro-1,6-naphthyridin-6(5H)-yl)-N-(thiazol-5-ylmethyl)pyridazine-3-carboxamide] are 108% and 119 nM.
On the same counts, the results for `COC1(C)CN(C(=O)c2cc(C)c(N3CCc4ncc(N5CCCn6nccc65)cc4C3)nn2)C1` [Example 552, (6-(3-(6,7-dihydropyrazolo[1,5-a]pyrimidin-4(5H)-yl)-7,8-dihydro-1,6-naphthyridin-6(5H)-yl)-5-methylpyridazin-3-yl)(3-methoxy-3-methylazetidin-1-yl)methanone] are 76% and 22 nM.
On the same counts, the results for `Cc1cc(C(=O)NCc2ccc(C#N)nc2)cnc1N1CCc2ncc(-c3cn(C)nc3C)cc2C1` [Example 456, N-((6-cyanopyridin-3-yl)methyl)-6-(3-(1,3-dimethyl-1H-pyrazol-4-yl)-7,8-dihydro-1,6-naphthyridin-6(5H)-yl)-5-methylnicotinamide] are 75% and 888 nM.
Take `Cc1cnc2c(c1)CN(c1nnc(C(=O)NCc3ccncc3)c(C)c1C)CC2` [Example 486, 4,5-dimethyl-6-(3-methyl-7,8-dihydro-1,6-naphthyridin-6(5H)-yl)-N-(pyridin-4-ylmethyl)pyridazine-3-carboxamide]: the Emax at 30 µM is 97% and the half-maximal effective concentration (EC50) was 286 nM.
As for `FC(F)(F)c1cnc2c(c1)CN(c1nc(C3CC3)nc3c1CCC3)CC2` [compound 265, 6-(2-cyclopropyl-6,7-dihydro-5H-cyclopenta[d]pyrimidin-4-yl)-3-(trifluoromethyl)-5,6,7,8-tetrahydro-1,6-naphthyridine], the EC50 came to 1480 nM.
In the case of `Cc1cc(C(=O)N2CC(C)(F)C2)nnc1N1CCc2ncc(-c3ccnn3C)cc2C1` [Example 564, (3-fluoro-3-methylazetidin-1-yl)(5-methyl-6-(3-(1-methyl-1H-pyrazol-5-yl)-7,8-dihydro-1,6-naphthyridin-6(5H)-yl)pyridazin-3-yl)methanone], the Emax at 30 µM worked out at 72% and the EC50 worked out at 86 nM.
Regarding `Cc1c(C#N)nnc(N2CCc3ncc(-c4ccc(N(C)C)nc4)cc3C2)c1C` [Example 312, 6-(3-(6-(dimethylamino)pyridin-3-yl)-7,8-dihydro-1,6-naphthyridin-6(5H)-yl)-4,5-dimethylpyridazine-3-carbonitrile], the Emax at 30 µM stood at 50% and the EC50 is 458 nM.
For `Cc1cc(C(=O)N2CC(F)(F)C2)nnc1N1CCc2ncc(CC(F)(F)F)cc2C1` [Example 583, (3,3-difluoroazetidin-1-yl)(5-methyl-6-(3-(2,2,2-trifluoroethyl)-7,8-dihydro-1,6-naphthyridin-6(5H)-yl)pyridazin-3-yl)methanone], the Emax at 30 µM stood at 91% and the EC50 is 121 nM.
On the same counts, the results for `Cc1cc(C#N)cnc1N1CCc2ncc(OCCCOc3ccccc3)cc2C1` [Example 432, 5-methyl-6-(3-(3-phenoxypropoxy)-7,8-dihydro-1,6-naphthyridin-6(5H)-yl)nicotinonitrile] are 48% and 6800 nM.
On the same counts, the results for `O=C(NCc1ccncc1)c1ccc(N2CCc3ncc(C(F)(F)F)cc3C2)nn1` [Example 511, N-(pyridin-4-ylmethyl)-6-(3-(trifluoromethyl)-7,8-dihydro-1,6-naphthyridin-6(5H)-yl)pyridazine-3-carboxamide] are 75% and 3160 nM.
On the same counts, the results for `Cc1cc(C(=O)NCc2cccnc2)cnc1N1CCc2ncc(-c3cn(C)nc3C)cc2C1` [Example 457, 6-(3-(1,3-dimethyl-1H-pyrazol-4-yl)-7,8-dihydro-1,6-naphthyridin-6(5H)-yl)-5-methyl-N-(pyridin-3-ylmethyl)nicotinamide] are 85% and 576 nM.
`CCn1cc(-c2cnc3c(c2)CN(c2ncc(C#N)cc2C)CC3)cn1` [compound 105, 6-[3-(1-ethylpyrazol-4-yl)-7,8-dihydro-5H-1,6-naphthyridin-6-yl]-5-methyl-pyridine-3-carbonitrile]: the Emax at 30 µM was 98% and the EC50 was 263 nM.
On the same counts, the results for `Cc1cc(C(=O)NCc2cccc(F)c2)cnc1N1CCc2ncccc2C1` [compound 159, 6-(7,8-dihydro-5H-1,6-naphthyridin-6-yl)-N-[(3-fluorophenyl)methyl]-5-methyl-pyridine-3-carboxamide] are 69% and 3130 nM.
On the same counts, the results for `Cc1c(C#N)nnc(N2CCc3ncc(Nc4cccnc4F)cc3C2)c1C` [compound 119, 6-[3-[(2-fluoro-3-pyridyl)amino]-7,8-dihydro-5H-1,6-naphthyridin-6-yl]-4,5-dimethyl-pyridazine-3-carbonitrile] are 82% and 191 nM.
On the same counts, the results for `Cc1cc(F)ncc1-c1cnc2c(c1)CN(c1ncc(C(=O)NCc3ccncc3)cc1C)CC2` [compound 177, 6-[3-(6-fluoro-4-methyl-3-pyridyl)-7,8-dihydro-5H-1,6-naphthyridin-6-yl]-5-methyl-N-(4-pyridylmethyl)pyridine-3-carboxamide] are 91% and 101 nM.
As for `Cc1cc(C(=O)NC2(c3cccnc3)CC2)nnc1N1CCc2ncc(CC(F)(F)F)cc2C1` [Example 585, 5-methyl-N-(1-(pyridin-3-yl)cyclopropyl)-6-(3-(2,2,2-trifluoroethyl)-7,8-dihydro-1,6-naphthyridin-6(5H)-yl)pyridazine-3-carboxamide], the Emax at 30 µM came to 96% and the EC50 is 482 nM.
On the same counts, the results for `[2H]C1([2H])N(c2cnc3c(c2)CN(c2ncc(C#N)cc2C)CC3)c2ccnn2C([2H])([2H])C1([2H])[2H]` [Example 417, 6-(3-(6,7-dihydropyrazolo[1,5-a]pyrimidin-4(5H)-yl-5,5,6,6,7,7-d6)-7,8-dihydro-1,6-naphthyridin-6(5H)-yl)-5-methylnicotinonitrile] are 110% and 24 nM.
Take `Cc1ccc(Oc2cnc3c(c2)CN(c2nc(C)nc(C)c2C)CC3)c(F)c1` [compound 269, 3-(2-fluoro-4-methylphenoxy)-6-(2,5,6-trimethylpyrimidin-4-yl)-5,6,7,8-tetrahydro-1,6-naphthyridine]: the Emax at 30 µM was 89% and the 50% effective concentration (EC50) came to 1080 nM.
On the same counts, the results for `[2H]C1([2H])Cc2ncc(Nc3cccnc3C)cc2C([2H])([2H])N1c1ncc(C#N)cc1C` [Example 602, 5-methyl-6-(3-((2-methylpyridin-3-yl)amino)-7,8-dihydro-1,6-naphthyridin-6(5H)-yl-5,5,7,7-d4)nicotinonitrile] are 92% and 35 nM.
On the same counts, the results for `Cc1cc(C#N)nnc1N1CCc2ncc(N3CCN(C)C(=O)C3)cc2C1` [Example 410, 5-methyl-6-(3-(4-methyl-3-oxopiperazin-1-yl)-7,8-dihydro-1,6-naphthyridin-6(5H)-yl)pyridazine-3-carbonitrile] are 89% and 3800 nM.

For the origin of these results see US20250230155A1 (Vanderbilt University, priority 2021, published 2025).
